Reference: patent publication US8063225B2, “Tricyclic compound derivatives useful in the treatment of neoplastic diseases, inflammatory disorders and immunomodulatory disorders” (Chembridge Corporation, priority 2006, dated 2011)

What was measured:
IGF1R tyrosine kinase = target: T1, IGF1R tyrosine kinase (Homo sapiens, UniProt P08069); assay: IGF1R tyrosine kinase assay (Kinase-Glo ATP depletion or PT66/PT100 AlphaScreen); settings: biochemical tyrosine kinase assay
T1 construct: 6×His- or GST-tagged kinase domain fragments of the corresponding RTKs expressed in baculovirus system; host or cells: baculovirus system
T1 sequence (P08069 999-1274 limits assumed): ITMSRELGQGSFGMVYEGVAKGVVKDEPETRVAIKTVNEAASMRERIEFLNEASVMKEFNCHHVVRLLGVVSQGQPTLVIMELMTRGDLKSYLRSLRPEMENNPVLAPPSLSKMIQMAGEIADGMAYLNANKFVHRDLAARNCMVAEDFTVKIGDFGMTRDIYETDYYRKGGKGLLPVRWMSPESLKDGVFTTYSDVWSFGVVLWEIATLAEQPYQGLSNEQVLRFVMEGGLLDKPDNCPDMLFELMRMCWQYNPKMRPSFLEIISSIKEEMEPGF
Summary of the method: (§1)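 Kinase-Glo format: baculovirus-expressed tagged kinase domain, poly(Glu-Tyr), 10 μM ATP, pH 7.5 Tris, MgCl2/MnCl2, DTT; 60 min at 37° C; remaining ATP by luciferase luminescence. Other kinases run identically, enzyme titrated to ≤30% ATP consumption. IC50 by non-linear regression, quadruplicates.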

InsR = target: T2, InsR (Homo sapiens, UniProt P06213); assay: Tyrosine kinase assay (Kinase-Glo or AlphaScreen), InsR; settings: biochemical tyrosine kinase assay
T2 construct: 6×His- or GST-tagged kinase domain fragments of the corresponding RTKs expressed in baculovirus system; host or cells: baculovirus system
T2 sequence (P06213 1023-1298 limits assumed, species assumed): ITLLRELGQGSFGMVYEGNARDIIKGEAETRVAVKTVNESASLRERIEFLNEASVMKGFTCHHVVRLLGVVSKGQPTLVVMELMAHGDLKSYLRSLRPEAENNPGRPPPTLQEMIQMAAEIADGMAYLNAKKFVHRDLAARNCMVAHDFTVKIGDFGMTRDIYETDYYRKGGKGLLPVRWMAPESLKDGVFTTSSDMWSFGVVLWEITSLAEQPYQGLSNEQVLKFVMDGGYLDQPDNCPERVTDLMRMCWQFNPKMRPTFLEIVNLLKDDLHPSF
Summary of the method: as §1

Alk = target: T3, Alk (Homo sapiens, UniProt Q9UM73); assay: Tyrosine kinase assay (Kinase-Glo or AlphaScreen), Alk; settings: biochemical tyrosine kinase assay
T3 construct: 6×His- or GST-tagged kinase domain fragments of the corresponding RTKs expressed in baculovirus system; host or cells: baculovirus system
T3 sequence (Q9UM73 1116-1392 limits assumed, species assumed): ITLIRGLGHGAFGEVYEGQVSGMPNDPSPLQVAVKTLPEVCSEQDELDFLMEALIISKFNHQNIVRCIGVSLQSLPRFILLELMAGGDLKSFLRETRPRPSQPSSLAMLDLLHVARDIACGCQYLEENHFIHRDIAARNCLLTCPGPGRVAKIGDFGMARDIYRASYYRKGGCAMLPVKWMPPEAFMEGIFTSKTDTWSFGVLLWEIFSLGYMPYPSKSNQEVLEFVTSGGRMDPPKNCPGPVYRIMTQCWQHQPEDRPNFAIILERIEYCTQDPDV
Summary of the method: as §1

Jak2 = target: T4, Jak2 (Homo sapiens, UniProt O60674); assay: Tyrosine kinase assay (Kinase-Glo or AlphaScreen), Jak2; settings: biochemical tyrosine kinase assay
T4 construct: 6×His- or GST-tagged kinase domain fragments of the corresponding RTKs expressed in baculovirus system; host or cells: baculovirus system
T4 sequence (O60674 849-1124 limits assumed, species assumed): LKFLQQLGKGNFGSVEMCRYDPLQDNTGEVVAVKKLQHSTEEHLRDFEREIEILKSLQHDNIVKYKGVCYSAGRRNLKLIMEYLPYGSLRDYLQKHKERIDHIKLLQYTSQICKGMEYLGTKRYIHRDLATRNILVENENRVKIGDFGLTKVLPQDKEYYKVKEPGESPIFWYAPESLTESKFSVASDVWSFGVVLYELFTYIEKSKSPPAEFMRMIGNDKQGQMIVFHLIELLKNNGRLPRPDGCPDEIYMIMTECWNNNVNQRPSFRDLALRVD
Summary of the method: as §1

H929 (multiple myeloma) = assay: Cell proliferation inhibition, Cell Titer-Glo, H929; assay type: cell-based; settings: Homo sapiens, NCI-H929; cell proliferation assay, H929 cells
Summary of the method: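 Cells seeded at 2500-5000 per well with serially diluted compound for typically 3 days. Viable cells measured by ATP luminescence (Cell Titer-Glo); IC50 from proliferation-inhibition curves.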

[1] = tested on: HEK293 (human normal embryonic kidney); assay: Cell proliferation inhibition, Cell Titer-Glo, HEK293; assay type: cell-based; settings: cell proliferation assay, HEK293 cells, read-out: HEK 293 IC50
Description: (§2) IGF1R and other tyrosine kinase inhibitors can inhibit the proliferation of certain cancer cell lines indicating their possible therapeutic utility for treating the corresponding cancer types. Cancer cell lines of interest and control normal lines, including CHO, HEK293, BA/F3, MM1, H929, COLO205, PC3, DU145, MCF7, Panc1, ACHN, Hep G2, H460, K562, TT, U87-G, CAOV-3, SK-MEL5, Karpas 299, are plated in white, clear-bottomed 384-well cell culture plates at 2500-5000 cells per well and supplied with dilutions of tested compounds After a desired period of time (typically 3 days), the number of viable cells is quantitated by using Cell Titer-Glo Luminescent Cell Viability Assay (Promega), a cell proliferation assay system based on detection of total amount of ATP present as a measure of cell metabolic activity. The plated cells are mixed with the Cell Titer-Glo developing reagent and counted in a luminescence multiwell plate reader according to the standard manufacturer's protocol to generate IC50 curves for cell proliferation inhibition.
(§3) IGF1R and other tyrosine kinase inhibitors can inhibit the proliferation of certain cancer cell lines indicating their possible therapeutic utility for treating the corresponding cancer types. Cancer cell lines of interest and control normal lines, including CHO, HEK293, BA/F3, COLO205, PC3, DU145, MCF7, Panc1, ACHN, Hep G2, H460, K562, TT, U87-MG, CAOV-3, SK-MEL5, Karpas 299 and human multiple myeloma cell lines H929, MM1s, MM1r, UTMC2, CPM2, KMS11, My5, KMS12PE, My7, JJN3, KMS18, U266, SKMM2, RPMI-8226 are plated in white, clear-bottomed 384-well cell culture plates at 2500-5000 cells per well and supplied with dilutions of tested compounds After a desired period of time (typically 3 days), the number of viable cells is quantitated by using Cell Titer-Glo Luminescent Cell Viability Assay (Promega), a cell proliferation assay system based on detection of total amount of ATP present as a measure of cell metabolic activity. The plated cells are mixed with the Cell Titer-Glo developing reagent and counted in a luminescence multiwell plate reader according to the standard manufacturer's protocol to generate IC50 curves for cell proliferation inhibition. Results are typically reported as percent of growth (% viability =(OD72h(compound)−ODday0))/(OD72h(no compound)−ODday0). Alternatively, viable cells are quantitated by using the conventional colorimetric MTT assay. The MTT assay is based on the cleavage of the yellow tetrazolium salt MTT to purple formazan crystal by metabolic active cells. The formazan is then solubilized, and the concentration determined by optical density at 570 nm. The cells plated and incubated with a compound as described above are supplemented with the solution of MTT and incubated for 2-3 hours. The growth medium is removed and dimethyl sulfoxide is added into each well to dissolve the formazan. The absorbance is measured on an ELISA plate reader with a test wavelength of 570 nm and a background subtraction wavelength of 630 nm to obtain sample signal (OD570-OD630). […] The results are reported in terms of IC50 value for a particular compound and a cell line in the standard 3-day proliferation assay using Cell Titer-Glo. […] The results are reported in terms of IC50 value for a particular compound and a cell line in the standard 3-day proliferation assay using MTT assay.

[2] = tested on: CHO (chinese hamster ovary); assay: Cell proliferation inhibition, Cell Titer-Glo, CHO; assay type: cell-based; settings: Cricetulus griseus; cell proliferation assay, CHO cells
Description: as §2, §3

Ba/F3 = assay: Cell proliferation inhibition, Cell Titer-Glo, Ba/F3; assay type: cell-based; settings: Mus musculus, BaF3; cell proliferation assay, Ba/F3 cells
Summary of the method: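 This standard 3-day proliferation assay used Ba/F3 cells plated in 384-well white plates with clear bottoms at 2500-5000 cells per well and treated with compound dilutions. Viable cell number was determined by mixing in Cell Titer-Glo developing reagent according to the manufacturer's protocol and counting luminescence. Percent viability relative to day 0 and untreated wells produced IC50 curves.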

Karpas-299 = assay: Cell proliferation inhibition, Cell Titer-Glo, Karpas-299; assay type: cell-based; settings: Homo sapiens; cell proliferation assay, Karpas-299 cells
Summary of the method: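 In this standard 3-day proliferation assay, Karpas 299 cells plated at 2500-5000 cells per well in 384-well white, clear-bottomed plates were treated with compound dilutions. Cell Titer-Glo developing reagent was added following the manufacturer's protocol, luminescence reflecting ATP content was read on a multiwell plate reader, and IC50 curves were generated.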

K562 = assay: Cell proliferation inhibition, Cell Titer-Glo, K562; assay type: cell-based; settings: Homo sapiens; cell proliferation assay, K562 cells
Summary of the method: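 Proliferation inhibition in human K562 cells was assessed in a standard 3-day assay. Cells (2500-5000 per well) in 384-well white, clear-bottomed plates received serial compound dilutions, then Cell Titer-Glo reagent was added per the manufacturer's protocol. Luminescence reflecting ATP content of metabolically active cells was counted in a multiwell reader, and IC50 curves were generated.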

| SMILES | IC50 (IGF1R tyrosine kinase) | IC50 (InsR) | IC50 (Alk) | IC50 (Jak2) | IC50 (H929 (multiple myeloma)) | IC50 (Ba/F3) | IC50 (Karpas-299) | IC50 (K562) | IC50 [1] | IC50 [2] |
| --- | --- | --- | --- | --- | --- | --- | --- | --- | --- | --- |
| COc1ccc(OC[C@H](O)CNc2cc[nH]c(=O)c2-c2nc3cc4c(cc3[nH]2)CN(C2CCN(C)CC2)C4=O)c(Cl)c1 [compound 146] | < 0.5 µM | < 0.5 µM | 0.5 to 5 µM | < 0.5 µM | 5 to 15 µM |  |  |  | > 15 µM | > 15 µM |
| Cc1ccc(F)c(OC[C@H](O)CNc2cc[nH]c(=O)c2-c2nc3cc4c(cc3[nH]2)C(=O)N(C2CCN(C)CC2)C4)c1Cl [compound 147] | < 0.5 µM | < 0.5 µM | 5 to 15 µM | < 0.5 µM | 0.5 to 5 µM |  |  |  | > 15 µM | > 15 µM |
| CN1CCC(N2Cc3cc4nc(-c5c(NC[C@@H](O)COc6ccccc6C(F)(F)F)cc[nH]c5=O)[nH]c4cc3C2=O)CC1 [compound 149] | < 0.5 µM | < 0.5 µM | < 0.5 µM | < 0.5 µM | 0.5 to 5 µM |  |  |  | 5 to 15 µM | > 15 µM |
| CN1CCC(N2Cc3cc4nc(-c5c(NC[C@@H](O)COc6c(F)ccc(F)c6Cl)cc[nH]c5=O)[nH]c4cc3C2=O)CC1 [compound 155] | < 0.5 µM | < 0.5 µM | 5 to 15 µM | < 0.5 µM | 5 to 15 µM |  |  |  |  | > 15 µM |
| Cc1ccc(Cl)c(OC[C@H](O)CNc2cc[nH]c(=O)c2-c2nc3cc4c(cc3[nH]2)C(=O)N(C2CCN(C)CC2)C4)c1F [compound 158] | < 0.5 µM | < 0.5 µM | 5 to 15 µM | < 0.5 µM | 5 to 15 µM |  |  |  |  | > 15 µM |
| CN1CCC(N2Cc3cc4nc(-c5c(NC[C@@H](O)COc6ccc(F)cc6F)cc[nH]c5=O)[nH]c4cc3C2=O)CC1 [compound 148] | < 0.5 µM | < 0.5 µM | 0.5 to 5 µM | < 0.5 µM | 5 to 15 µM |  |  |  | > 15 µM | 5 to 15 µM |
| CN1CCC(N2Cc3cc4nc(-c5c(NC[C@@H](O)COc6c(F)cccc6Cl)cc[nH]c5=O)[nH]c4cc3C2=O)CC1 [compound 153] | < 0.5 µM | < 0.5 µM | 5 to 15 µM | < 0.5 µM | 5 to 15 µM |  |  |  |  | > 15 µM |
| CCc1cc2c(cc1OC[C@H](O)CNc1cc[nH]c(=O)c1-c1nc3cc4c(cc3[nH]1)C(=O)N(C1CCN(C)CC1)C4)OCO2 [compound 156] | < 0.5 µM | < 0.5 µM | 0.5 to 5 µM | < 0.5 µM | 5 to 15 µM |  |  |  |  | > 15 µM |
| CN1CCC(N2Cc3cc4nc(-c5c(NC[C@@H](O)COc6cc(F)ccc6Cl)cc[nH]c5=O)[nH]c4cc3C2=O)CC1 [compound 150] | < 0.5 µM | < 0.5 µM | 0.5 to 5 µM | < 0.5 µM | 5 to 15 µM |  |  |  |  | > 15 µM |

Now from value to molecule, other results behind:

| IC50 (IGF1R tyrosine kinase) | IC50 (InsR) | IC50 (Alk) | IC50 (Jak2) | IC50 (H929 (multiple myeloma)) | IC50 (Ba/F3) | IC50 (Karpas-299) | IC50 (K562) | SMILES | IC50 [1] | IC50 [2] |
| --- | --- | --- | --- | --- | --- | --- | --- | --- | --- | --- |
| < 0.5 µM | < 0.5 µM | 0.5 to 5 µM | < 0.5 µM | 5 to 15 µM |  |  |  | CN1CCC(N2Cc3cc4[nH]c(-c5c(NC[C@@H](O)COc6c(F)cc(F)cc6Br)cc[nH]c5=O)nc4cc3C2=O)CC1 [compound 164] | 5 to 15 µM | 5 to 15 µM |
| < 0.5 µM | < 0.5 µM | 0.5 to 5 µM | < 0.5 µM | 5 to 15 µM |  |  |  | CCc1c(OC[C@H](O)CNc2cc[nH]c(=O)c2-c2nc3cc4c(cc3[nH]2)CN(C2CCN(C)CC2)C4=O)ccc2c1OCO2 [compound 162] | 5 to 15 µM | 5 to 15 µM |
| < 0.5 µM | < 0.5 µM | 0.5 to 5 µM | 0.5 to 5 µM | 5 to 15 µM | > 15 µM | 5 to 15 µM | > 15 µM | CC(=N)N1CCC(N2C(=O)c3cc4nc(-c5c(NC[C@@H](O)COc6ccc(C)cc6C)cc[nH]c5=O)[nH]c4cc3C2=O)CC1 [compound 161] | > 15 µM | > 15 µM |
| < 0.5 µM | < 0.5 µM | 0.5 to 5 µM | < 0.5 µM | 5 to 15 µM |  |  |  | CN1CCC(N2Cc3cc4[nH]c(-c5c(NC[C@@H](O)COc6cc(F)c(F)cc6Br)cc[nH]c5=O)nc4cc3C2=O)CC1 [compound 168] | > 15 µM | > 15 µM |
| < 0.5 µM | < 0.5 µM | 0.5 to 5 µM | < 0.5 µM | 0.5 to 5 µM |  |  |  | Cc1ccc(OC[C@H](O)CNc2cc[nH]c(=O)c2-c2nc3cc4c(cc3[nH]2)CN(C2CCN(C)CC2)C4=O)c(Br)c1 [compound 166] | > 15 µM | 5 to 15 µM |
| < 0.5 µM | < 0.5 µM | 0.5 to 5 µM | < 0.5 µM | > 15 µM |  |  |  | Cc1c(OC[C@H](O)CNc2cc[nH]c(=O)c2-c2nc3cc4c(cc3[nH]2)CN(C2CCN(C)CC2)C4=O)ccc2c1OCO2 [compound 169] | > 15 µM | > 15 µM |
| < 0.5 µM | < 0.5 µM | 0.5 to 5 µM | < 0.5 µM | 0.5 to 5 µM |  |  |  | CN1CCC(N2Cc3cc4[nH]c(-c5c(NC[C@@H](O)COc6ccc(F)cc6Br)cc[nH]c5=O)nc4cc3C2=O)CC1 [compound 165] | > 15 µM | 5 to 15 µM |
| < 0.5 µM | < 0.5 µM | 0.5 to 5 µM | < 0.5 µM | 0.5 to 5 µM |  |  |  | CN1CCC(N2Cc3cc4[nH]c(-c5c(NC[C@@H](O)COc6ccccc6Br)cc[nH]c5=O)nc4cc3C2=O)CC1 [compound 167] | > 15 µM | > 15 µM |
| < 0.5 µM | < 0.5 µM | 0.5 to 5 µM | < 0.5 µM | 5 to 15 µM |  |  |  | CN1CCC(N2Cc3cc4[nH]c(-c5c(NC[C@@H](O)COc6ccc7c(c6Cl)OCO7)cc[nH]c5=O)nc4cc3C2=O)CC1 [compound 163] | 5 to 15 µM | > 15 µM |
